Columns and labels:
[1] = target: T1, recombinant human Wee1A kinase (Homo sapiens, UniProt P30291); assay: Wee1A kinase binding assay (LanthaScreen Eu time-resolved FRET); settings: 30 nM tracer 178, 5 nM Wee1A kinase, 2 nM Eu-labeled antibody; 60 minutes at room temperature; read-out: Wee1A kinase Binding IC50
T1 construct: full length Wee1 kinase was expressed by baculovirus in insect cells; purchased Invitrogen PV3817; host or cells: insect cells (baculovirus)
Summary of the method: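 Full-length, baculovirus-expressed GST-tagged Wee1A (5 nM) was mixed with 2 nM Eu-anti-GST antibody, 30 nM kinase tracer 178 and compound (1% DMSO). Buffer was 50 mM HEPES pH 7.5, 10 mM MgCl2, 1 mM EGTA, 0.01% Brij-35, incubated 60 min at room temperature. TR-FRET 665/615 nm emission ratios from duplicates were curve-fitted.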

[2] = target: T2, Wee1A kinase (CDK1 Tyr15 phosphorylation in ACHN renal cell carcinoma cells) (Homo sapiens, UniProt P30291); assay: High-content imaging of pCdk1 Y15, Wee1A kinase target engagement in ACHN cells; assay type: cell-based; settings: 4 h treatment, nuclear positivity for pCdk1 Y15 vs DMSO control, read-out: CDK1 Tyr15 Phosphorylation EC50
T2 construct: pCDK1 Tyr15 immunofluorescence read-out
T2 sequence (P30291 whole entry): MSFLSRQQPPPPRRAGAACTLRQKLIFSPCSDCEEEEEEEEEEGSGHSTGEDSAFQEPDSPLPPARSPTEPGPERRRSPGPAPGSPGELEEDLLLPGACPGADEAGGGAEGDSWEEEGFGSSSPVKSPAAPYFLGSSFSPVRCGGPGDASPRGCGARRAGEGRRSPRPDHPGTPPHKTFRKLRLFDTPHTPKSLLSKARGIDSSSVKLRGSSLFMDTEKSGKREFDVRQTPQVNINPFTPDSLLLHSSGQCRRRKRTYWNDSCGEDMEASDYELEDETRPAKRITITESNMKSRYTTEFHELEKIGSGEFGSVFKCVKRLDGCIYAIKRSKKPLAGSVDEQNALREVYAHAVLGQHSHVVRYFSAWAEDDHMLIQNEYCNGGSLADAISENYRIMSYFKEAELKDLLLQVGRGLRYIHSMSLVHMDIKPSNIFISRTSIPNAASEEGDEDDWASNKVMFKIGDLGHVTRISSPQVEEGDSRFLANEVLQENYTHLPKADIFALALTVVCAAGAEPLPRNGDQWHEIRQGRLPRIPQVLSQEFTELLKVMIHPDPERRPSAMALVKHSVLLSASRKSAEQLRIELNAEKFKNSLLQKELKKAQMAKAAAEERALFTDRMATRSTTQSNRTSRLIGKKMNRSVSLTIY
Summary of the method: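 EC50 values come from the per-well fraction of cells with nuclear pCdk1 Y15 staining, normalised to DMSO control, by automated immunofluorescence imaging. Cells were ACHN renal carcinoma, treated 4 h with compound at 7–5,000 nM or 0.3–200 nM.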

[3] = target: T3, Myt1 kinase (recombinant PMYT-1) (Homo sapiens, UniProt Q99640); assay: Myt1 kinase binding assay (LanthaScreen Eu Kinase Binding Assay); settings: 3 nM tracer 178, 2.5 nM PMYT-1, 1 nM Eu-labeled antibody; read-out: Myt1 kinase Binding IC50
T3 construct: full length PMYT-1 was expressed by baculovirus in insect cells; purchased Invitrogen A30984; host or cells: insect cells (baculovirus)
T3 sequence (Q99640 1-499): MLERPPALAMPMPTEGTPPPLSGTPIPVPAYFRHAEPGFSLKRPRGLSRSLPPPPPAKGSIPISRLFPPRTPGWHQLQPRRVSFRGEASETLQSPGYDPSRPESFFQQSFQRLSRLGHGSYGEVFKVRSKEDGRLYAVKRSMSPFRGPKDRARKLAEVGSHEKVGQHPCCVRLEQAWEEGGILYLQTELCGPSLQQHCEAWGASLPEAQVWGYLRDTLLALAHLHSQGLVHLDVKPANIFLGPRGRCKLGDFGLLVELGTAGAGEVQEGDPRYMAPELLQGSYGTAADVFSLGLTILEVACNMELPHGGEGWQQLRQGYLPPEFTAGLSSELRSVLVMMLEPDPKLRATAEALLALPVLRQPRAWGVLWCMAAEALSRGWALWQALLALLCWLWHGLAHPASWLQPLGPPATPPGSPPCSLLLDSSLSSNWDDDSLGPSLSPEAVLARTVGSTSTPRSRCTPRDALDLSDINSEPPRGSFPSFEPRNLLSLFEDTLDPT
Summary of the method: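 Compound binding to Myt1 kinase was assessed using the LanthaScreen Eu Kinase Binding Assay. This europium-based binding format was applied to quantify how strongly each compound bound to the Myt1 enzyme, and the binding affinity was reported for each compound as an IC50 value.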

T1 sequence (P30291 whole entry): as the sequence (P30291 whole entry) above

IC50 [1]	EC50 [2]	IC50 [3]	Compound
< 10 nM	> 1000 nM	20 to 100 nM	C=CCn1c(=O)c2cnc(Nc3ccc4[nH]nc(Cl)c4c3)nc2n1-c1cccc(OC2CCNCC2)n1 [Compound 275, 2-allyl-6-((3-chloro-1H-indazol-5-yl)amino)-1-(6-(piperidin-4-yloxy)pyridin-2-yl)-1,2-dihydro-3H-pyrazolo[3,4-d]pyrimidin-3-one]
< 10 nM	> 1000 nM	100 to 500 nM	C=CCn1c(=O)c2cnc(Nc3ccc(Cl)c(Cl)c3)nc2n1-c1cccc(NC2CCNCC2)n1 [Compound 146, 2-allyl-6-(3,4-dichlorophenylamino)-1-[6-(4-piperidylamino)-2-pyridyl]-1,2-dihydro-3H-1,2,5,7-tetraazainden-3-one]
< 10 nM	> 1000 nM	> 500 nM	C=CCn1c(=O)c2cnc(Nc3ccc(Cl)cc3)nc2n1-c1cccc(N[C@@H]2CCCN(C)C2)n1 [Compound 168, 1-{6-[(R)-1-methyl-3-piperidylamino]-2-pyridyl}-2-allyl-6-(p-chlorophenylamino)-1,2-dihydro-3H-1,2,5,7-tetraazainden-3-one]
< 10 nM	< 100 nM	20 to 100 nM	CCn1c(=O)c2cnc(Nc3ccccc3)nc2n1-c1cccc(OC2CCN(C)CC2)n1 [Compound 117, 6-anilino-2-ethyl-1-[6-(1-methyl-4-piperidyloxy)-2-pyridyl]-1,2-dihydro-3H-1,2,5,7-tetraazainden-3-one]
< 10 nM	> 1000 nM	100 to 500 nM	CCn1c(=O)c2cnc(Nc3ccc4c(cnn4C)c3)nc2n1-c1cccc(NC2CCNCC2)n1 [Compound 285, 2-ethyl-6-[(1-methyl-1H-indazol-5-yl)amino]-1-{6-[(piperidin-4-yl)amino]pyridin-2-yl}-1H,2H,3H-pyrazolo[3,4-d]pyrimidin-3-one]
< 10 nM	500 to 1000 nM	20 to 100 nM	C=CCn1c(=O)c2cnc(Nc3ccc(OCC(F)(F)F)cc3)nc2n1-c1cccc(NC2CCNCC2)n1 [Compound 130, 2-allyl-1-[6-(4-piperidylamino)-2-pyridyl]-6-[p-(2,2,2-trifluoroethoxy)phenylamino]-1,2-dihydro-3H-1,2,5,7-tetraazainden-3-one]
< 10 nM	> 1000 nM	100 to 500 nM	CCn1c(=O)c2cnc(Nc3cccc(-c4cnn(C)c4)c3)nc2n1-c1cccc(OC2CCNCC2)n1 [Compound 340, 2-ethyl-6-[m-(1-methyl-4-pyrazolyl)phenylamino]-1-[6-(4-piperidyloxy)-2-pyridyl]-1,2-dihydro-3H-1,2,5,7-tetraazainden-3-one]
< 10 nM	< 100 nM	20 to 100 nM	C=CCn1c(=O)c2cnc(Nc3cccc(-n4cccn4)c3)nc2n1-c1cccc(OC2CCN(C)CC2)n1 [Compound 364, 2-allyl-1-[6-(1-methyl-4-piperidyloxy)-2-pyridyl]-6-[m-(1-pyrazolyl)phenylamino]-1,2-dihydro-3H-1,2,5,7-tetraazainden-3-one]
< 10 nM	100 to 500 nM	< 20 nM	C=CCn1c(=O)c2cnc(Nc3ccc(F)cc3)nc2n1-c1ccnc(OC2CCNCC2)n1 [Compound 247, 2-allyl-6-((4-fluorophenyl)amino)-1-(2-((piperidin-4-yl)oxy)pyrimidin-4-yl)-1,2-dihydro-3H-pyrazolo[3,4-d]pyrimidin-3-one]
< 10 nM	500 to 1000 nM	100 to 500 nM	C=CCn1c(=O)c2cnc(Nc3ccc4c(cnn4C)c3)nc2n1-c1cccc(NC2CCNCC2)n1 [Compound 122, 6-[(1-methyl-1H-indazol-5-yl)amino]-1-{6-[(piperidin-4-yl)amino]pyridin-2-yl}-2-(prop-2-en-1-yl)-1H,2H,3H-pyrazolo[3,4-d]pyrimidin-3-one]
< 10 nM	100 to 500 nM	20 to 100 nM	C=CCn1c(=O)c2cnc(Nc3cccc(-n4cccn4)c3)nc2n1-c1cccc(OC2CCNCC2)n1 [Compound 363, 2-allyl-1-[6-(4-piperidyloxy)-2-pyridyl]-6-[m-(1-pyrazolyl)phenylamino]-1,2-dihydro-3H-1,2,5,7-tetraazainden-3-one]
< 10 nM	100 to 500 nM	> 500 nM	C=CCn1c(=O)c2cnc(Nc3ccc(F)cc3)nc2n1-c1cccc(OC2CCCNCC2)n1 (single isomer, unassigned) [Compound 344]
< 10 nM	< 100 nM	100 to 500 nM	C=CCn1c(=O)c2cnc(Nc3ccc4c(cnn4C)c3)nc2n1-c1cccc(OC2CCNC(C)(C)C2)n1 (stereo not drawn) [Compound 337, 2-allyl-1-(6-((2,2-dimethylpiperidin-4-yl)oxy)pyridin-2-yl)-6-((1-methyl-1H-indazol-5-yl)amino)-1,2-dihydro-3H-pyrazolo[3,4-d]pyrimidin-3-one]
< 10 nM	< 100 nM	20 to 100 nM	CCCn1c(=O)c2cnc(Nc3ccc4c(cnn4C)c3)nc2n1-c1cccc(OC2CCN(C)CC2)n1 [Compound 111, 6-[(1-methyl-1H-indazol-5-yl)amino]-1-{6-[(1-methylpiperidin-4-yl)oxy]pyridin-2-yl}-2-propyl-1H,2H,3H-pyrazolo[3,4-d]pyrimidin-3-one]
< 10 nM	100 to 500 nM	100 to 500 nM	C=CCn1c(=O)c2cnc(Nc3cncc(C#N)c3)nc2n1-c1cccc(OC2CCN(C)CC2)n1 [Compound 330, 5-[(1-{6-[(1-methylpiperidin-4-yl)oxy]pyridin-2-yl}-3-oxo-2-(prop-2-en-1-yl)-1H,2H,3H-pyrazolo[3,4-d]pyrimidin-6-yl)amino]pyridine-3-carbonitrile]
< 10 nM	< 100 nM	100 to 500 nM	C=CCn1c(=O)c2cnc(Nc3ccc(OCC(F)(F)F)cc3)nc2n1-c1ccnc(OC2CCN(C3COC3)CC2)n1 [Compound 371, 2-allyl-1-(2-((1-(oxetan-3-yl)piperidin-4-yl)oxy)pyrimidin-4-yl)-6-((4-(2,2,2-trifluoroethoxy)phenyl)amino)-1,2-dihydro-3H-pyrazolo[3,4-d]pyrimidin-3-one]
< 10 nM	> 1000 nM	20 to 100 nM	C=CCn1c(=O)c2cnc(Nc3ccc4ncnn4c3)nc2n1-c1cccc(OC2CCNCC2)n1 [Compound 245, 2-allyl-6-(1,3,3a-triaza-5-indenylamino)-1-[6-(4-piperidyloxy)-2-pyridyl]-1,2-dihydro-3H-1,2,5,7-tetraazainden-3-one]
< 10 nM	100 to 500 nM	< 20 nM	CCn1c(=O)c2cnc(Nc3ccc(-c4ccccc4)cc3)nc2n1-c1cccc(OC2CCNCC2)n1 [Compound 272, 6-(4-biphenylylamino)-2-ethyl-1-[6-(4-piperidyloxy)-2-pyridyl]-1,2-dihydro-3H-1,2,5,7-tetraazainden-3-one]
< 10 nM	< 100 nM	< 20 nM	C=CCn1c(=O)c2cnc(Nc3ccc4c(cnn4C4CC4)c3)nc2n1-c1cccc(OC2CCNCC2)n1 [Compound 376, 2-allyl-6-((1-cyclopropyl-1H-indazol-5-yl)amino)-1-(6-(piperidin-4-yloxy)pyridin-2-yl)-1,2-dihydro-3H-pyrazolo[3,4-d]pyrimidin-3-one]
< 10 nM	100 to 500 nM	20 to 100 nM	C=CCn1c(=O)c2cnc(Nc3cncc(Cl)c3)nc2n1-c1cccc(OC2CCN(C)CC2)n1 [Compound 323, 2-allyl-6-(5-chloro-3-pyridylamino)-1-[6-(1-methyl-4-piperidyloxy)-2-pyridyl]-1,2-dihydro-3H-1,2,5,7-tetraazainden-3-one]
< 10 nM	500 to 1000 nM	> 500 nM	C=CCn1c(=O)c2cnc(Nc3cc(Cl)cc(Br)c3)nc2n1-c1cccc(NC2CCNCC2)n1 [Compound 144, 6-[(3-bromo-5-chlorophenyl)amino]-1-{6-[(piperidin-4-yl)amino]pyridin-2-yl}-2-(prop-2-en-1-yl)-1H,2H,3H-pyrazolo[3,4-d]pyrimidin-3-one]

From patent US20260364080A1, “PYRAZOLO-PYRIMIDINONE COMPOUNDS FOR USE IN METHODS OF INHIBITING WEE1 A KINASE” (Acrivon Therapeutics, Inc., priority 2023, published 2026)
